Data on six molecules can be found in patent publication US8722890B2 (AbbVie Inc., priority 2008, dated 2014).

Molecules are shown by their SMILES. Where two headings read alike, the source gives them in different places. Some results are limits rather than exact numbers.

In one series the target is cKIT (Homo sapiens (Human), UniProt P10721). As to the kind of experiment: HTRF in vitro kinase assay, cKIT. In kind it is biochemical. Particulars: PDGFR family; 1 mM ATP. Here is the method: (§1) To determine the activity of the various kinases, a homogenous time-resolved fluorescence (HTRF) in vitro kinase assay was used.
Chain of cKIT (P10721 544-976): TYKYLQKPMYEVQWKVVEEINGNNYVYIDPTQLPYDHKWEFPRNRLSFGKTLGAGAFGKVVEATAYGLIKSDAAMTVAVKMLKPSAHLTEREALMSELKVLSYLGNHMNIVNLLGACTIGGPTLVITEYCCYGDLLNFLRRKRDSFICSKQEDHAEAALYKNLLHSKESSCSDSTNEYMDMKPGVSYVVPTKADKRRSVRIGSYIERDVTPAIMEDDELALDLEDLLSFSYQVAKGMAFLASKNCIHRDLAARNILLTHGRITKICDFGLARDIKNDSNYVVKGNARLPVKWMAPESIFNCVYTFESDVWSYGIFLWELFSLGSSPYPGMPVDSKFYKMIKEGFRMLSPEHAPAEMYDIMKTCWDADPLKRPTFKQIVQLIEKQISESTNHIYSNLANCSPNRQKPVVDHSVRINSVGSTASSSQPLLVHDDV
(§2) For example for KDR, cKIT, FLT1, CSF1R and FTL3, purified enzyme was mixed with 0.5 μM N-biotinylated substrate (Biotin-Ahx-[…]-amide (SEQ. ID. 1)), various concentrations of inhibitor in reaction buffer (50 mM HEPES, pH 7.1, 10 mM MgCl2, 2 mM MnCl2, 0.1% BSA and 1 mM DTT, 40 μL final volume), ATP (1 mM final conc.) in a black 384-well plate. […] The quenched reaction was allowed to stand at room temperature for 3 hours and was then read in a time-resolved fluorescence detector (InVision, Perkin-Elmer) at 620 nm and 665 nm sequentially with excitation.

A further series addresses KDR (Homo sapiens (Human), UniProt P35968). As to the kind of experiment: HTRF in vitro kinase assay, KDR. The series is classed as biochemical. The following applies: VEGFR family; 1 mM ATP. Here is the method: as §1, §2
In a further series the target is CYP 3A4 (Homo sapiens (Human), UniProt P08684). Nature of the series: CYP 3A4 Assay (pooled human liver microsomes, midazolam). Here is the method:
Assays (200 μL final volume) were carried out in NUNC polypropylene deep well plates in 50 mM potassium phosphate buffer, pH 7.4, using a microtiter plate shaker in a 37° C. incubator. […] A constant amount of dimethylsulfoxide (1%) was added to the incubations with the test compounds, and each analysis was performed in duplicate. For preincubation experiments (Pre), the microsomes, test compounds, and NADPH were mixed and incubated 30 minutes before addition of midazolam. For coincubation experiments (Co), the compounds, microsomes, and midazolam were mixed and the reaction initiated by addition of NADPH to the wells. In both protocols, the complete reaction was terminated after 10 minutes of shaking by addition of 100 μL of a 1/1 mixture of acetonitrile and methanol containing 0.33 μM 1-hydroxytriazolam.
For analysis, an aliquot of each well were transferred to an autosampler vial and 10 μL injected onto a Shimadzu LC-10A HPLC system equipped with a YMC-AQ (2.0×50 mm) column. The components were separated using a gradient of 10% acetonitrile −0.1% acetic acid to 70% acetonitrile −0.1% acetic acid at a flow rate of at 0.4 mL/minute over 5 minutes.

Another series deals with Aurora B (Homo sapiens (Human), UniProt Q96GD4). Nature of the series: Aurora B activity assay (time-resolved fluorescence). In kind it is biochemical. Particulars: Table 3; 1 mM ATP. The procedure: After 1 hour, the reaction was stopped with EDTA and anti-phospho-histone H3 Europium Cryptate (Cis-Bio) and SA-APC (Phycolink, Prozyme) were added to detect the phosphopeptide. The amount of phosphorylation was determined by the time-resolved fluorescence ratio of signals at 665 nm and 615 nm. The IC50's were calculated by an exponential fit of the inhibition values with the inhibitor concentrations using Assay Explorer software.
Chain of Aurora B (Q96GD4 whole entry): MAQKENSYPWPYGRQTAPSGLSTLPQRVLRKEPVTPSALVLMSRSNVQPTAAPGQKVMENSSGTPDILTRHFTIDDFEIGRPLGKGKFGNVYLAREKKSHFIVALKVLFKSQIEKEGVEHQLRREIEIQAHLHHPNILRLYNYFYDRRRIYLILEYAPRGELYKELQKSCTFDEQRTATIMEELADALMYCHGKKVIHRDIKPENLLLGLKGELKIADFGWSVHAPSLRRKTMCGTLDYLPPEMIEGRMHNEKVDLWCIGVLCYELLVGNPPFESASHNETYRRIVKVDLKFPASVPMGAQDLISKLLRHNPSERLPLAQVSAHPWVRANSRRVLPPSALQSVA
Chain of Aurora B (Q9NQS7 826-918 partner): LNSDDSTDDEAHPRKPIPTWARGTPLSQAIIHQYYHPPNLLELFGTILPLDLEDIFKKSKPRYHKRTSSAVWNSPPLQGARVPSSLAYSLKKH

In another series the target is Aurora C (Homo sapiens (Human), UniProt Q9UQB9). Nature of the series: Aurora C activity assay (time-resolved fluorescence). The following applies: Table 5; read-out: Aurora C HTRF IC50. The series is classed as biochemical. The procedure: To determine Aurora A and C activity of representative compounds of the invention, Active Aurora A or C enzyme was incubated in wells of a 384 well plate with biotinylated STK substrate-2 (Upstate), 1 mM ATP, and various concentrations of inhibitors in a Hepes buffer, pH 7.4 containing MgCl2, sodium othrovanadate, and Triton X-100. After 1 hour, the reaction was stopped with EDTA and anti-phospho-STK antibody Europium Cryptate (Upstate) and SA-XL665 (Upstate) were added to detect the phosphopeptide. The amount of phosphorylation was determined by the time-resolved fluorescence ratio of signals at 665 nm and 615 nm. The IC50s were calculated by an exponential fit of the inhibition values with the inhibitor concentrations using Assay Explorer software.
Chain of Aurora C (Q9UQB9 whole entry): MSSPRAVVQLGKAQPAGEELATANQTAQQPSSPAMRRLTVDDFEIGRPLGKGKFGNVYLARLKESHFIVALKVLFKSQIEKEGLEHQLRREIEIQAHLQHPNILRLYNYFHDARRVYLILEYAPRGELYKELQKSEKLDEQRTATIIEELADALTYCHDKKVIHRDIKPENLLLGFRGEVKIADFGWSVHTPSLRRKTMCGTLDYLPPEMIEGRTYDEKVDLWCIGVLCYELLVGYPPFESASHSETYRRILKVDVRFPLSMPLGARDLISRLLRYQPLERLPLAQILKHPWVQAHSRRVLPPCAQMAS

Chain of CYP 3A4 (P08684 whole entry): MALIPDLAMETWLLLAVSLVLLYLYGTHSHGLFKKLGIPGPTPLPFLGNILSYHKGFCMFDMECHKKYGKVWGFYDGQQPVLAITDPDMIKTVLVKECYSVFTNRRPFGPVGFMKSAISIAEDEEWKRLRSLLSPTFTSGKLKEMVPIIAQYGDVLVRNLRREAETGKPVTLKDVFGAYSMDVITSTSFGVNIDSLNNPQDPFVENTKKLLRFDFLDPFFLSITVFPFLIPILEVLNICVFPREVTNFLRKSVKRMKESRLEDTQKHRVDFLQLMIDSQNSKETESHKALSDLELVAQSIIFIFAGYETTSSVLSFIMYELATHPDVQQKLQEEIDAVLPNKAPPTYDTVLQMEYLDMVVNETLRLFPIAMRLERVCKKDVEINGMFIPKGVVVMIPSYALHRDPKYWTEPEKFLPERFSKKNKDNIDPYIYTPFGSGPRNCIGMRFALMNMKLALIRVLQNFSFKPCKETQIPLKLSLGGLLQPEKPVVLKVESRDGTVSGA
Chain of KDR (P35968 789-1354): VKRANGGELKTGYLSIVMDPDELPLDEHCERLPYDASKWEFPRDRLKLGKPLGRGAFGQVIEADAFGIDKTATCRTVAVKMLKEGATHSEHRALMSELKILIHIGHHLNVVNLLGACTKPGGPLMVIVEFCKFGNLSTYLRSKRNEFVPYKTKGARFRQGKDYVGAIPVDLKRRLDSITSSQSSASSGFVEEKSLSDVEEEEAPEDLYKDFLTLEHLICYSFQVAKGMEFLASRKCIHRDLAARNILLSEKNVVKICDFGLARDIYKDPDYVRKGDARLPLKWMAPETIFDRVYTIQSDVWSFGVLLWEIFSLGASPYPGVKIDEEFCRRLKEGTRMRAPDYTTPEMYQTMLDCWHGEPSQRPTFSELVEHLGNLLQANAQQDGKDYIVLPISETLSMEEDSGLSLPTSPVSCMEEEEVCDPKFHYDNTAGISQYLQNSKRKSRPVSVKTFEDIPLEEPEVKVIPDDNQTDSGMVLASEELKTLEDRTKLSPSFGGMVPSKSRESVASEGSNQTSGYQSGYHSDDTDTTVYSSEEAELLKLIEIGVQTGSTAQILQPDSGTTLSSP

As for `COc1ccc(NC(=O)Nc2ccc(-c3csc4c(-c5cnn(C[C@H](O)CO)c5)cnc(N)c34)cc2)cc1` [Example 5, N-[4-(4-amino-7-{1-[(2S)-2,3-dihydroxypropyl]-1H-pyrazol-4-yl}thieno[3,2-c]pyridin-3-yl)phenyl]-N′-(4-methoxyphenyl)urea], the half-inhibitory concentration (IC50) at cKIT was found to be 12.6 nM.

Consider `COc1ccc(NC(=O)Nc2ccc(-c3csc4c(-c5cnn(CC(C)(C)O)c5)cnc(N)c34)cc2)cc1` [Example 4, N-(4-{4-amino-7-[1-(2-hydroxy-2-methylpropyl)-1H-pyrazol-4-yl]thieno[3,2-c]pyridin-3-yl}phenyl)-N′-(4-methoxyphenyl)urea], for which the IC50 on KDR was 5.01 nM; on CYP 3A4 (read-out: CYP 3A4 IC50, coincubation (Co), Co: reaction initiated by addition of NADPH, 2 μM midazolam), above 10000 nM; on CYP 3A4 (read-out: CYP 3A4 IC50, preincubation (Pre), Pre: microsomes, compound, NADPH incubated 30 minutes before midazolam) it was above 10000 nM; on Aurora B, 14.8 nM.

Molecule `Cc1cccc(NC(=O)Nc2ccc(-c3csc4c(-c5cn[nH]c5)cnc(N)c34)cc2)c1` [Example 6, N-{4-[4-amino-7-(1H-pyrazol-4-yl)thieno[3,2-c]pyridin-3-yl]phenyl}-N′-(3-methylphenyl)urea, reference compound] displayed an IC50 on Aurora B of 8.44 nM.

Consider `Nc1ncc(-c2cnn(CCO)c2)c2scc(-c3ccc(NC(=O)Nc4ccc(OC(F)F)cc4)cc3)c12` [Example 2, N-(4-{4-amino-7-[1-(2-hydroxyethyl)-1H-pyrazol-4-yl]thieno[3,2-c]pyridin-3-yl}phenyl)-N′-[4-(difluoromethoxy)phenyl]urea], for which the IC50 at cKIT is 27.3 nM; against Aurora B, 7.87 nM.

Regarding `Nc1ncc(-c2cnn(CCO)c2)c2scc(-c3ccc(NC(=O)Nc4cccc(F)c4)cc3)c12` [Example 1, N-(4-{4-amino-7-[1-(2-hydroxyethyl)-1H-pyrazol-4-yl]thieno[3,2-c]pyridin-3-yl}phenyl)-N′-(3-fluorophenyl)urea], the concentration for half-maximal inhibition (IC50) on Aurora C was found to be 1 nM.

On Aurora B, `Cc1cccc(NC(=O)Nc2ccc(-c3csc4c(-c5cnn(C[C@H](C)O)c5)cnc(N)c34)cc2)c1` [Example 3, N-[4-(4-amino-7-{1-[(2S)-2-hydroxypropyl]-1H-pyrazol-4-yl}thieno[3,2-c]pyridin-3-yl)phenyl]-N′-(3-methylphenyl)urea] yielded an IC50 of 11.2 nM.
